From the NIST ThermoML archive (doi:10.1021/je060247x)

Settings: Liquid

CCCCCCCC[n+]1ccn(C)c1.F[B-](F)(F)F [1-methyl-3-octylimidazolium tetrafluoroborate]
mass density [kg/m3]
Settings | 100 kPa | 1000 kPa | 2000 kPa | 3000 kPa | 4000 kPa | 5000 kPa | 10000 kPa
293.15 K | 1108.7 | 1109.1 | 1109.6 | 1110 | 1110.5 | 1110.9 | 1113.1
303.15 K | 1100.7 | 1101.1 | 1101.6 | 1102.1 | 1102.6 | 1103.1 | 1105.4
313.15 K | 1092.9 | 1093.4 | 1093.9 | 1094.4 | 1094.9 | 1095.4 | 1097.9
323.15 K | 1085.4 | 1085.9 | 1086.4 | 1087 | 1087.5 | 1088 | 1090.6
333.15 K | 1078.2 | 1078.7 | 1079.3 | 1079.8 | 1080.3 | 1080.9 | 1083.5
343.15 K | 1071.4 | 1072 | 1072.5 | 1073.1 | 1073.7 | 1074.2 | 1076.9
353.15 K | 1064.7 | 1065.2 | 1065.8 | 1066.4 | 1067 | 1067.6 | 1070.3
363.15 K | 1058.6 | 1059.1 | 1059.8 | 1060.4 | 1061 | 1061.6 | 1064.4
373.15 K | 1052.4 | 1053 | 1053.7 | 1054.3 | 1054.9 | 1055.5 | 1058.5
383.15 K | 1046.6 | 1047.2 | 1047.9 | 1048.5 | 1049.2 | 1049.8 | 1052.9
393.15 K | 1040.9 | 1041.5 | 1042.1 | 1042.8 | 1043.4 | 1044.1 | 1047.2

CCCCCCCC[n+]1ccn(C)c1.F[P-](F)(F)(F)(F)F [1-octyl-3-methylimidazolium hexafluorophosphate]
mass density [kg/m3]
Settings | 100 kPa | 1000 kPa | 2000 kPa | 3000 kPa | 4000 kPa | 5000 kPa | 10000 kPa
293.15 K | 1242.4 | 1242.9 | 1243.5 | 1244.1 | 1244.6 | 1245.1 | 1247.8
303.15 K | 1233.8 | 1234.4 | 1235 | 1235.6 | 1236.1 | 1236.7 | 1239.5
313.15 K | 1225.3 | 1225.9 | 1226.5 | 1227.1 | 1227.7 | 1228.3 | 1231.1
323.15 K | 1217.6 | 1218.2 | 1218.8 | 1219.4 | 1220 | 1220.6 | 1223.4
333.15 K | 1209.1 | 1209.7 | 1210.3 | 1211 | 1211.6 | 1212.2 | 1215.1
343.15 K | 1201 | 1201.6 | 1202.3 | 1203 | 1203.6 | 1204.3 | 1207.4
353.15 K | 1193.6 | 1194.3 | 1195 | 1195.7 | 1196.3 | 1197.1 | 1200.3
363.15 K | 1186.2 | 1186.9 | 1187.6 | 1188.3 | 1189 | 1189.7 | 1193
373.15 K | 1179.2 | 1179.9 | 1180.6 | 1181.3 | 1182 | 1182.7 | 1186.1
383.15 K | 1172.7 | 1173.5 | 1174.2 | 1174.9 | 1175.6 | 1176.3 | 1179.8
393.15 K | 1166 | 1166.8 | 1167.5 | 1168.3 | 1169.1 | 1169.8 | 1173.5
